The numbers were not newly measured in patent US11154521B2 (Acer Therapeutics Inc., priority 2016, dated 2021), which cites them from elsewhere.

The conditions of series [1]: healthy adults.
Series [2] concerns cultured human muscle fibers. The following applies: Nogalska et al. 2014.
The next series deals with torsinA. As to conditions: Cho et al. PLoS One 2014.

Regarding sodium phenylbutyrate, in series [1], the mean terminal half-life is 48 min. In addition, the “proinflammatory molecules and reactive oxygen species (ROS)” value in the series on activated glial cells is listed as “suppress”. Also, in series [2], the “Aβ42 and its oligomers” value is recorded as “decrease”; the lysosomal activity result is recorded as “improve”; the muscle-fiber vacuolization entry was “prevent”; the γ-secretase activity result is listed as “decrease”.
Take `O=C(O)CCCc1ccccc1` [4-phenylbutyrate]: the “ER stress and inhibited cAMP response to forskolin induced by torsinA mutation” value in the series on torsinA is “corrected”.
